Several values for one entry are separate records, joined by “and”; a condition that tells them apart may be missing. Identical values can stand only once. Like-named read-outs stand apart in the source and are kept apart here. Numbered stars: 1 amine (or outer) side, 2 acyl side, 3 side chain; on linkers, the order of the positions; unused ones are H or OH. Bridge positions count the residues as written; N and C are the ends. Square brackets hold non-standard residues; d marks the D form. Peptide text beside a SMILES is read from it. I, II: the chains in the order shown. Actinocin(9to1) = Cc1c2oc3c(C)ccc(C(=O)[*:1])c3nc-2c(C(=O)[*:2])c(N)c1=O; NMeV = CN[C@H](C(=O)O)C(C)C; Sar = CNCC(=O)O
Key:
DC-3F/ADII cells [1] = assay: cells; settings: Mesocricetus auratus, DC3F
DC-3F/ADII cells [2] = system: DC-3F/ADII cells
DC-3F hamster lung cells = assay: Cytotoxicity toward DC-3F hamster lung cells
DC-3F/ADX cells = assay: Cytotoxicity toward DC-3F/ADX cells; assay type: cell-based, hamster; settings: for IC50: DC3F/ADX, DC-3F/ADX; for (C)/(A): IC50 ratio DC-3F/ADX to DC-3F, * collaterally sensitive
CCRF-CEM/VBL100 cells [3] = system: CCRF-CEM/VBL100 cells
CCRF-CEM cells [4] = assay: Influx of [3H]VP-16 in CCRF-CEM cells; assay type: cell-based, human; settings: 100 μM, in words
CCRF-CEM cells [5] = assay: Cytotoxicity / growth inhibition of CCRF-CEM leukemic cells
CCRF-CEM/VM-1 cells = assay: Cytotoxicity toward VM-26-resistant CCRF-CEM/VM-1 cells (mutated Topo II gene); assay type: cell-based, human
P388/DX tumor = assay: Combination therapy of adriamycin & 5-N-acetyl-ardeemin or verapamil in B6D2F1 mice bearing P388/DX tumor; settings: VPML 70 mg/kg (then 35);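 also: male BDF mice implanted intraperitoneally with P388/DX cells, 10^6 per mouse, dosed from day 1 on a QDX4, QWX2 schedule, five mice per dose group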
Text: ^a Male BDF mice were inoculated P388/DX, 10^6 cells/mouse, i.p.
starting day 1, QDX4, QWX2. There were five mice at every dose and ten

P388/O tumor = assay: Combination therapy of adriamycin & 5-N-acetyl-ardeemin or verapamil in B6D2F1 mice bearing P388/O tumor; settings: VPML 70 mg/kg (then 35);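 also: male BDF mice carrying P388/O given intraperitoneally, dosing begun on day 1 on a QDX4, QWX2 schedule, five animals per dose level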
Text: ^a Male BDF mice were inoculated P388/O, 10^6 cells/mouse, i.p. a
starting day 1, QDX4, QWX2.

CCRF-CEM cells [6] = system: CCRF-CEM cells
CCRF-CEM/VBL100 cells [7] = assay: cells; settings: Homo sapiens
CCRF-CEM/VLB-100 cells = assay: Intracellular accumulation of [3H]vinblastine in CCRF-CEM/VLB-100 cells; assay type: cell-based, human; settings: 30 μM
Experimental: (§1) *Cells were preloaded with [^3 H]
(§2) times (or without wash) with 100 ml cold medium to remove extracellular
(§3) with or without a reverse prenyl compound or an MDRreversing agent. Cells
(§4) were then separated from radioactive medium by microfuge oillayer method.
(§5) Extracellular space counts carried down # by cells (^3 HInulin space
(§6) were subtracted from the total radioactive counts.

CCRF-CEM cells [8] = assay: Intracellular accumulation of [3H]vinblastine in CCRF-CEM cells; assay type: cell-based, human; settings: 30 μM
Experimental: as §1, §2, §3, §4, §5, §6

[9] = Mesocricetus auratus, DC3F, read-out: IC50 (A), mean ± spread, mean of the determinations
[10] = Mesocricetus auratus, DC3F, read-out: IC50 (A), single determinations
[11] = read-out: IC50 (A), single determinations
[12] = Table 5A, CCRF-CEM/VLB, * collaterally sensitive vs parent

**Q.** Which results are given for `Cc1c2oc3c(C)ccc(C(=O)N[C@@H]4C(=O)N[C@H](C(C)C)C(=O)N5CCC[C@H]5C(=O)N(C)CC(=O)N(C)[C@@H](C(C)C)C(=O)O[C@@H]4C)c3nc-2c(C(=O)N[C@@H]2C(=O)N[C@H](C(C)C)C(=O)N3CCC[C@H]3C(=O)N(C)CC(=O)N(C)[C@@H](C(C)C)C(=O)O[C@@H]2C)c(N)c1=O` [Actinomycin D, reference compound] (I: T[dV]P[Sar][NMeV] / II: T[dV]P[Sar][NMeV]; ester I:1-I:C, II:1-II:C; linker I:N-II:N via Actinocin(9to1))?
**A.** IC50 (DC-3F/ADII cells [1]; read-out: IC50 (B), DC-3F/ADII): 0.0909 µM; (B)/(A), resistance in words (DC-3F/ADII cells [2]): Resistant; (B)/(A) (DC-3F/ADII cells [2]; IC50 ratio DC-3F/ADII to DC-3F, * collaterally sensitive): 349.6 X; IC50 (DC-3F hamster lung cells; [9]): 0.00026 ± 5e-05 µM; IC50 (DC-3F hamster lung cells; [10]): 0.00021 µM; IC50 (DC-3F hamster lung cells; [11]): 0.00031 µM; (C)/(A), resistance in words (DC-3F/ADX cells): Very Resistant; IC50 (DC-3F/ADX cells): 1.23 µM; (C)/(A) (DC-3F/ADX cells): 4738.5 X

**Q.** Which results are given for `C=CC(C)(C)C12CC3C(=O)NCC(=O)N3C1Nc1ccccc12` (stereo not shown) [Desmethyl-DKP]?
**A.** IC50 (DC-3F/ADII cells [1]; read-out: IC50 (B)): 103 µM; (B)/(A) (DC-3F/ADII cells [2]): 1.3 X; IC50 (DC-3F hamster lung cells; [9]): 131 ± 14.7 µM; IC50 (DC-3F hamster lung cells; [10]): 116 µM; IC50 (DC-3F hamster lung cells; [11]): 145 µM; IC50 (DC-3F/ADX cells): 199 µM; (C)/(A) (DC-3F/ADX cells): 1.5 X

**Q.** What does the source list for `COc1ccc(CCN(C)CCCC(C#N)(c2ccc(OC)c(OC)c2)C(C)C)cc1OC` (stereo not shown) [Verapamil, verapamil]?
**A.** IC50 (CCRF-CEM/VBL100 cells [3]; read-out: IC50 of reversing agent, Table 6B, CCRF-CEM/VBL): 118 µM; collateral sensitivity (DC-3F/ADII cells [2]; in words): Collateral sensitivity is also observed; VP-16 accumulation (CCRF-CEM cells [4]): also increased VP-16 accumulation; IC50 (CCRF-CEM cells [5]; read-out: IC50 of reversing agent, Table 6B): 296 µM; IC50 (CCRF-CEM/VM-1 cells; Table 6B, CCRF-CEM/VM-1, read-out: IC50 of reversing agent): 118 µM; % ILS (P388/DX tumor): +5%; MST (P388/DX tumor): 7.9 days; Days survived (P388/DX tumor; individual mice 1-5): 6.5 days and 7.25 days and 8.25 days and 9.25 days; % ILS (P388/O tumor): +1%; MST (P388/O tumor): 7.7 days; Days survived (P388/O tumor; individual mice 1-5): 7.0 days and 8.0 days and 8.6 days

**Q.** How did the IC50 (CCRF-CEM cells [6]) turn out when `COc1cc(NS(C)(=O)=O)ccc1Nc1c2ccccc2nc2ccccc12` [M-AMSA, reference compound] was run?
**A.** Its IC50 is 0.184 µM.

**Q.** What about the IC50 (CCRF-CEM/VBL100 cells [3]; ccrf-cem/vbl100 cells) of the same molecule?
**A.** Its IC50 is 0.656 µM.

**Q.** What about the IC50 (DC-3F/ADII cells [2]; dc-3f/adii cells) of the same molecule?
**A.** Its IC50 is 0.032 µM.

**Q.** And the IC50 (CCRF-CEM/VM-1 cells; ccrf-cem/vm-1 cells)?
**A.** Its IC50 is 2.55 µM.

**Q.** How did the IC50 (CCRF-CEM/VBL100 cells [3]; [12]) turn out when `C=CC(C)(C)C12CC3C(=O)N(C(C)=O)C(C)C(=O)N3C1N(C(C)=O)c1ccccc12` (stereo not shown) [Imide Di-Ac-DKP Amide 14(D), imide diacetate diketopiperazine] was run?
**A.** Its IC50 is 58 µM.

**Q.** And the IC50 (CCRF-CEM/VBL100 cells [7]; [12])?
**A.** The IC50 was 51.4 µM.

**Q.** And the IC50 (CCRF-CEM/VBL100 cells [7]; Table 6, CCRF-CEM/VBL)?
**A.** Its IC50 is 37.1 µM.

**Q.** What about the IC50 (CCRF-CEM/VBL100 cells [7]; read-out: IC50, mean ± spread, Table 5A, CCRF-CEM/VLB, mean) of the same molecule?
**A.** Its IC50 is 54.7 ± 3.3 µM.

**Q.** What about the IC50 (CCRF-CEM cells [5]; Homo sapiens, Table 5A, single determinations) of the same molecule?
**A.** Its IC50 is 103 µM.

**Q.** What about the IC50 (CCRF-CEM cells [5]; Homo sapiens, Table 6, CCRF-CEM) of the same molecule?
**A.** The IC50 was 62.5 µM.

**Q.** And the IC50 (CCRF-CEM cells [5]; Homo sapiens, read-out: IC50, mean ± spread, Table 5A, CCRF-CEM, mean)?
**A.** Its IC50 is 83.4 ± 23.4 µM.

**Q.** What about the IC50 (CCRF-CEM cells [5]; Table 5A, single determinations) of the same molecule?
**A.** Its IC50 is 64 µM.

**Q.** What about the “[3H]vinblastine accumulation” value (CCRF-CEM/VLB-100 cells; washed) of the same molecule?
**A.** Its value is 4.01 fmole/10^3 cells.

**Q.** What about the “[3H]vinblastine accumulation” value (CCRF-CEM/VLB-100 cells; without wash) of the same molecule?
**A.** The value was 15.92 fmole/10^3 cells.

**Q.** And the IC50 (CCRF-CEM/VM-1 cells; Homo sapiens, CCRF-CEM, Table 5A, CCRF-CEM/VM-1, mean, read-out: IC50, mean ± spread)?
**A.** Its IC50 is 85.2 ± 4 µM.

**Q.** What about the IC50 (CCRF-CEM/VM-1 cells; Homo sapiens, CCRF-CEM, Table 5A, CCRF-CEM/VM-1, read-out: IC50) of the same molecule?
**A.** Its IC50 is 81.4 µM.

**Q.** And the IC50 (CCRF-CEM/VM-1 cells; Table 5A, CCRF-CEM/VM-1, read-out: IC50)?
**A.** The IC50 was 89 µM.

**Q.** And the “[3H]vinblastine accumulation” value (CCRF-CEM cells [8]; washed)?
**A.** Its value is 28.36 fmole/10^3 cells.

**Q.** And the “[3H]vinblastine accumulation” value (CCRF-CEM cells [8]; without wash)?
**A.** Its value is 34.54 fmole/10^3 cells.

Reference: patent US6147076A, “Analogues of N-acetylardeemin, method of preparation and uses thereof” (priority 1996, dated 2000)
